{"source": "patent US10344019B2", "about": "(priority 2010, dated 2019)", "experiment_in_all_cases": "microbe, parasite or virus in culture", "format_in_all_cases": "cell-based", "key": {"[1]": {"test_system": "HCV 1a RLuc cells (dicistronic genotype 1a H77 replicon, RLuc reporter)", "conditions": "Hepatitis C virus, 72 h, Table 2; genotype 1a H77 replicon, 72 hours; read-out: 1a", "outline": "(§1)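 Renilla luciferase HCV replicon cells: dicistronic 1b Con1, 1a H77 or 2a JFH-1 replicons, or a JFH-1 chimera carrying J6 NS5A (M31 present). Compound in DMSO serial dilutions, 72 h incubation, then lysis and luciferase read. EC50 by non-linear regression.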"}, "[2]": {"test_system": "HCV 2a JFH-1 Rluc cells (dicistronic genotype 2a JFH-1 replicon, RLuc reporter)", "conditions": "Hepatitis C virus, 72 h, Table 2; genotype 2a JFH-1 replicon, 72 hours; read-out: 2a JFH", "outline": "as §1"}, "[3]": {"test_system": "HCV 3a RLuc cells (NS5A chimeric genotype 1b Con1 replicon with consensus genotype 3a NS5A gene)", "conditions": "Hepatitis C virus, read-out: 3a, Table 2; genotype 3a NS5A chimeric replicon", "outline": "(§2)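 Replicon cells stably carrying the listed RLuc-encoding dicistronic replicons were seeded and treated with DMSO serial dilutions of compound (10 mM stocks) diluted into culture medium. After 72 h, cells were lysed and Renilla luciferase activity measured. EC50 was derived by non-linear regression.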"}, "[4]": {"test_system": "HCV 4a Rluc cells (NS5A chimeric genotype 1b Con1 replicon with genotype 4a NS5A gene)", "conditions": "Hepatitis C virus, read-out: 4a", "outline": "as §2"}, "[5]": {"test_system": "HCV 1b RLuc cells (dicistronic genotype 1b Con1 replicon, RLuc reporter)", "conditions": "Hepatitis C virus, 72 h, read-out: 1b (nM)", "outline": "as §1"}}, "data": [{"compound": "COC(=O)N[C@H](C(=O)N1CCC[C@H]1c1ncc(-c2ccc3cc(-c4ccc(-c5cnc([C@@H]6[C@H]7CC[C@H](C7)N6C(=O)[C@H](NC(=O)OC)c6ccccc6)[nH]5)cc4)ccc3c2)[nH]1)C1CCOCC1", "note": "[Example 49]", "values": [{"measurement": "EC50", "setting": "[1]", "value": "0.001 to 0.999", "unit": "nM"}, {"measurement": "EC50", "setting": "[2]", "value": "0.001 to 0.999", "unit": "nM"}, {"measurement": "EC50", "setting": "[3]", "value": "0.001 to 0.99", "unit": "nM"}, {"measurement": "EC50", "setting": "[4]", "value": "0.001 to 0.99", "unit": "nM"}, {"measurement": "EC50", "setting": "[5]", "value": 0.014, "unit": "nM"}]}, {"compound": "COC(=O)N[C@H](C(=O)N1CC2(C[C@H]1c1ncc(-c3ccc(-c4ccc5cc(-c6cnc([C@@H]7CCCN7C(=O)[C@H](NC(=O)OC)c7ccccc7)[nH]6)ccc5c4)cc3)[nH]1)OCCO2)C1CCOCC1", "note": "[Example 50]", "values": [{"measurement": "EC50", "setting": "[1]", "value": "0.001 to 0.999", "unit": "nM"}, {"measurement": "EC50", "setting": "[2]", "value": "0.001 to 0.999", "unit": "nM"}, {"measurement": "EC50", "setting": "[3]", "value": "0.001 to 0.99", "unit": "nM"}, {"measurement": "EC50", "setting": "[4]", "value": "0.001 to 0.99", "unit": "nM"}, {"measurement": "EC50", "setting": "[5]", "value": 0.031, "unit": "nM"}]}, {"compound": "COC(=O)N[C@H](C(=O)N1CCC[C@H]1c1ncc(-c2ccc3cc(-c4ccc(-c5cnc([C@@H]6[C@@H]7CC[C@@H](C7)N6C(=O)[C@H](NC(=O)OC)c6ccccc6)[nH]5)cc4)ccc3c2)[nH]1)C(C)C", "note": "[Example 51]", "values": [{"measurement": "EC50", "setting": "[1]", "value": "1 to 44", "unit": "nM"}, {"measurement": "EC50", "setting": "[2]", "value": "1 to 44", "unit": "nM"}, {"measurement": "EC50", "setting": "[3]", "value": "1 to 4.99", "unit": "nM"}, {"measurement": "EC50", "setting": "[4]", "value": "0.001 to 0.99", "unit": "nM"}, {"measurement": "EC50", "setting": "[5]", "value": 0.012, "unit": "nM"}]}, {"compound": "COC(=O)N[C@H](C(=O)N1CCC[C@H]1c1ncc(-c2ccc3cc(-c4ccc(-c5cnc([C@@H]6[C@@H]7CC[C@@H](C7)N6C(=O)[C@@H](NC(=O)OC)C(C)C)[nH]5)cc4)ccc3c2)[nH]1)C(C)C", "note": "[Example 52]", "values": [{"measurement": "EC50", "setting": "[1]", "value": "0.001 to 0.999", "unit": "nM"}, {"measurement": "EC50", "setting": "[2]", "value": "1 to 44", "unit": "nM"}, {"measurement": "EC50", "setting": "[3]", "value": "1 to 4.99", "unit": "nM"}, {"measurement": "EC50", "setting": "[4]", "value": "0.001 to 0.99", "unit": "nM"}, {"measurement": "EC50", "setting": "[5]", "value": 0.009, "unit": "nM"}]}, {"compound": "COC(=O)N[C@H](C(=O)N1CCC[C@H]1c1ncc(-c2ccc3c(c2)C(F)(F)c2cc(-c4ccc5nc([C@@H]6[C@H]7CC[C@H](C7)N6C(=O)[C@H](NC(=O)OC)c6ccccc6)[nH]c5c4)ccc2-3)[nH]1)C1CCOCC1", "note": "[Example 56]", "values": [{"measurement": "EC50", "setting": "[1]", "value": "0.001 to 0.999", "unit": "nM"}, {"measurement": "EC50", "setting": "[2]", "value": "0.001 to 0.999", "unit": "nM"}, {"measurement": "EC50", "setting": "[3]", "value": "0.001 to 0.99", "unit": "nM"}, {"measurement": "EC50", "setting": "[4]", "value": "0.001 to 0.99", "unit": "nM"}, {"measurement": "EC50", "setting": "[5]", "value": 0.01, "unit": "nM"}]}, {"compound": "COC(=O)N[C@H](C(=O)N1[C@@H]2CC[C@@H](C2)[C@H]1c1nc2ccc(-c3ccc4c(c3)C(F)(F)c3cc(-c5cnc([C@@H]6CCCN6C(=O)[C@H](NC(=O)OC)c6ccccc6)[nH]5)ccc3-4)cc2[nH]1)C1CCOCC1", "note": "[Example 57]", "values": [{"measurement": "EC50", "setting": "[1]", "value": "0.001 to 0.999", "unit": "nM"}, {"measurement": "EC50", "setting": "[2]", "value": "0.001 to 0.999", "unit": "nM"}, {"measurement": "EC50", "setting": "[3]", "value": "0.001 to 0.99", "unit": "nM"}, {"measurement": "EC50", "setting": "[4]", "value": "0.001 to 0.99", "unit": "nM"}, {"measurement": "EC50", "setting": "[5]", "value": 0.009, "unit": "nM"}]}, {"compound": "COC(=O)N[C@H](C(=O)N1CCC[C@H]1c1ncc(-c2ccc3c(c2)C(F)(F)c2cc(-c4ccc5nc([C@@H]6CC7(CN6C(=O)[C@H](NC(=O)OC)c6ccccc6)OCCO7)[nH]c5c4)ccc2-3)[nH]1)C1CCOCC1", "note": "[Example 58]", "values": [{"measurement": "EC50", "setting": "[1]", "value": "0.001 to 0.999", "unit": "nM"}, {"measurement": "EC50", "setting": "[2]", "value": "0.001 to 0.999", "unit": "nM"}, {"measurement": "EC50", "setting": "[3]", "value": "1 to 4.99", "unit": "nM"}, {"measurement": "EC50", "setting": "[4]", "value": "0.001 to 0.99", "unit": "nM"}, {"measurement": "EC50", "setting": "[5]", "value": 0.017, "unit": "nM"}]}, {"compound": "COC(=O)N[C@H](C(=O)N1CC2(C[C@H]1c1nc3ccc(-c4ccc5c(c4)C(F)(F)c4cc(-c6cnc([C@@H]7CCCN7C(=O)[C@H](NC(=O)OC)c7ccccc7)[nH]6)ccc4-5)cc3[nH]1)OCCO2)C1CCOCC1", "note": "[Example 59]", "values": [{"measurement": "EC50", "setting": "[1]", "value": "0.001 to 0.999", "unit": "nM"}, {"measurement": "EC50", "setting": "[2]", "value": "0.001 to 0.999", "unit": "nM"}, {"measurement": "EC50", "setting": "[3]", "value": "0.001 to 0.99", "unit": "nM"}, {"measurement": "EC50", "setting": "[4]", "value": "0.001 to 0.99", "unit": "nM"}, {"measurement": "EC50", "setting": "[5]", "value": 0.016, "unit": "nM"}]}, {"compound": "COC(=O)N[C@H](C(=O)N1CCC[C@H]1c1ncc(-c2ccc(-c3ccc(-c4cnc([C@@H]5CCCN5C(=O)[C@H](NC(=O)OC)c5ccccc5)[nH]4)cc3)cc2)[nH]1)C(C)C", "note": "[Example 60]", "values": [{"measurement": "EC50", "setting": "[1]", "value": "1 to 44", "unit": "nM"}, {"measurement": "EC50", "setting": "[2]", "value": "0.001 to 0.999", "unit": "nM"}, {"measurement": "EC50", "setting": "[3]", "value": "0.001 to 0.99", "unit": "nM"}, {"measurement": "EC50", "setting": "[4]", "value": "0.001 to 0.99", "unit": "nM"}, {"measurement": "EC50", "setting": "[5]", "value": 0.02, "unit": "nM"}]}, {"compound": "COC(=O)N[C@H](C(=O)N1CCC[C@H]1c1ncc(-c2ccc(-c3ccc(-c4cnc([C@@H]5[C@H]6CC[C@H](C6)N5C(=O)[C@@H](NC(=O)OC)C5CCOCC5)[nH]4)cc3)cc2)[nH]1)C(C)C", "note": "[Example 61]", "values": [{"measurement": "EC50", "setting": "[1]", "value": "0.001 to 0.999", "unit": "nM"}, {"measurement": "EC50", "setting": "[2]", "value": "0.001 to 0.999", "unit": "nM"}, {"measurement": "EC50", "setting": "[3]", "value": "1 to 4.99", "unit": "nM"}, {"measurement": "EC50", "setting": "[4]", "value": "0.001 to 0.99", "unit": "nM"}, {"measurement": "EC50", "setting": "[5]", "value": 0.087, "unit": "nM"}]}, {"compound": "COC(=O)N[C@H](C(=O)N1CCC[C@H]1c1nc2ccc3cc(-c4ccc(-c5cnc([C@@H]6[C@H]7CC[C@H](C7)N6C(=O)[C@@H](NC(=O)OC)C6CCOCC6)[nH]5)cc4)ccc3c2[nH]1)C(C)C", "note": "[Example 62]", "values": [{"measurement": "EC50", "setting": "[1]", "value": "0.001 to 0.999", "unit": "nM"}, {"measurement": "EC50", "setting": "[2]", "value": "0.001 to 0.999", "unit": "nM"}, {"measurement": "EC50", "setting": "[3]", "value": "0.001 to 0.99", "unit": "nM"}, {"measurement": "EC50", "setting": "[4]", "value": "0.001 to 0.99", "unit": "nM"}, {"measurement": "EC50", "setting": "[5]", "value": 0.034, "unit": "nM"}]}]}
